Values of other authors in publication PMC10705946, “^225Ac-iPSMA-RGD for Alpha-Therapy Dual Targeting of Stromal/Tumor Cell PSMA and Integrins” (International Journal of Molecular Sciences, 2023).
Ends that are not written are not given here.

System: glioma cells
Parameters: method as in PMID 29611298
Details: after 24 h of treatment, cells overexpressing the substance P receptor; cited from earlier work

^225Ac-labeled substance P: ^225Ac-labeled ligand of the neurokinin-1 receptor (RPKPQQFFGLM; ends and bridges not checked; also: 225Ac radiolabel, attachment not given here; UniProt P20366 58-68, looked up)
Increase of apoptotic cells: 25%
